What all share (assay): NCI anticancer screen, dose series, 48 h
The test system of assay [1] is HT29 colon.
Assay [2] has as its system DU-145 prostate.
In assay [3] the test system is MALME-3M melanoma.
Assay [4] relates to EKVX NSCLC.
Assay [5] relates to U251 CNS.
Assay [6] concerns RPMI-8226 leukemia.
Assay [7] relates to SW-620 colon.
In assay [8] the test system is NCI-H460 lung.
Assay [9] relates to MCF7 breast.
Assay [10] concerns PC-3 prostate.

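Values below derive from 48-hour exposures of cells grown in 96-well plates, with endpoints linearly interpolated between the two concentrations bracketing the appropriate inhibition level. At the GI50, growth is halved. TGI marks complete inhibition of growth.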

Regarding `Cc1cnc2[nH]c(-c3cccc(F)c3)cc(=O)c2c1`, the TGI in [1] is 0.806 µM; in [2] it was 1.3 µM; in assay [3] it was above 100 µM; in assay [4] it was above 100 µM; in assay [5], above 100 µM; in assay [6], above 43 µM.

Take `CC(C)=CCC12Cc3ccc(O)cc3C(C(C)CN1)C2C` (stereo unspecified): the TGI in [7], in [1], in assay [8], in assay [9], in assay [2] and in assay [3] was above 100 µM in each case. The TGI in assay [4], in [5] and in assay [6] was above 100 µM throughout.

Regarding `C=C(C)[C@H]1CC(=O)/C(C)=C\CC/C(C)=C/CC[C@@]2(C)O[C@@H]2C1`, the TGI in assay [7] was above 100 µM; in assay [1], 33.7 µM; in [8] it was 33.1 µM; in assay [2] it was 33.4 µM; in [3], 88.7 µM; in assay [5], 49.8 µM. Further, the TGI in assay [6] worked out at 52.1 µM; in assay [10] it was 64.5 µM.

Consider `c1c(N2CCOCC2)ssc1=[N+]1CCOCC1`, for which the TGI in [7], in assay [1], in assay [8], in [3], in assay [4] and in assay [5] was above 100 µM throughout. The molecule further had a TGI in assay [6] above 100 µM.

For `Cc1ccc2c(c1C)CC1(Cc3c(C)ccc(C)c3C1=O)C2=O` (stereo unspecified), the TGI in assay [7], in [1], in [8], in [9], in assay [2] and in [3] was above 100 µM in each case. In addition, the TGI in [4], in assay [5] and in assay [6] was above 100 µM each time.

In the case of `C#CCOCC12C=CC(O1)C1COC(=O)C12` (stereo unspecified), the TGI in assay [7], in [1], in [8], in assay [2], in assay [3] and in [4] was above 100 µM throughout. Further, the TGI in [5], in [6] and in [10] was above 100 µM throughout.

For `CCN1CCN(Cc2ccc(NC(=O)Nc3ccc(-n4ccc5c(NC(=O)c6ccccc6)nccc54)cc3)cc2C(F)(F)F)CC1`, the GI50 in assay [7] is 0.513 µM; in assay [8], 0.0811 µM; in [9] it was 0.756 µM; in assay [2] it was 1.12 µM; in assay [6], 0.942 µM; in assay [10] it was 1.16 µM. Also, the TGI in assay [7] was 1.7 µM; in assay [8], 1.45 µM; in [9], 2.08 µM; in assay [2], 2.34 µM; in [6], above 100 µM; in assay [10], 4.68 µM.

Take `CNC(=S)NNc1ncnc2c1c(-c1ccc(Cl)cc1)cn2-c1ccc(C)cc1`: the TGI was 21.7 µM in assay [7]; 29.8 µM in [1]; 17.8 µM in assay [8]; 43.4 µM in [2]; 33 µM in [3]; 28.8 µM in assay [4]. For the same molecule, the TGI turned out to be 24.1 µM in assay [5], 75.9 µM in assay [6] and 17.9 µM in [10].

As to `CC(=O)OC1CC2(O)C(CCC3(C)C(c4ccc(=O)oc4)CCC32O)C2(C)C1=CC(O)C1OC12` (stereo unspecified), the TGI in assay [7] worked out at 0.144 µM; in assay [1], 2.89 µM; in [8], 0.0466 µM; in assay [9], 0.402 µM; in assay [3], 0.13 µM; in assay [4] it was 0.157 µM. Further, the TGI in assay [5] came out at 0.281 µM; in assay [6], 0.4 µM.

As to `CCCO/N=[N+](\[O-])N(CC)CC`, the TGI in assay [7], in assay [1], in assay [8], in [4] and in assay [5] was above 100 µM throughout.

Turning to `O=C1/C(=C/c2ccc(Cl)cc2)CCCc2ccc(F)cc21`, the GI50 in assay [7] was 15.4 µM; in assay [1], 24.2 µM; in assay [8], 20.1 µM; in assay [9] it was 8.35 µM; in [3] it was 6.45 µM; in assay [4], 27.9 µM. In addition, the GI50 in assay [5] was 13.4 µM; in assay [6] it was 4.36 µM; in assay [10] it was 15.9 µM. For the same molecule, the TGI in assay [7] was 31.6 µM; in assay [1], above 100 µM; in [8] it was 54 µM; in [9], above 100 µM; in assay [3], 31.8 µM; in [4], 61 µM. Besides, the values for the TGI in assay [5], in assay [6] and in assay [10] were 52.6 µM, 28.7 µM and 48.3 µM, respectively.

As to `COc1ccc(OC)c(NC(=O)C(=O)C(C(=O)c2ccccc2F)C2OC(=O)c3ccccc32)c1` (stereo unspecified), the TGI in assay [7] was above 100 µM; in assay [1], above 100 µM; in [8] it was above 100 µM; in [4], above 100 µM; in assay [5], 49.5 µM; in assay [6] it was above 100 µM.
